For this test, the target named is hQC (Homo sapiens, UniProt Q16769). In words: Fluorometric (fluorescent) assay of hQC inhibition, IC50. It counts as biochemical. In outline:
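QC activity followed at 30° C via pyroglutamyl aminopeptidase-coupled release of fluorophore, using either H-Gln-βNA (0.2 mM; ex/em 320/410 nm; 0.2 M Tris/HCl pH 8.0, 20 mM EDTA) or H-Gln-AMC (ex/em 380/460 nm; 0.05 M Tris/HCl pH 8.0, 5 mM EDTA).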

Each structure is given as a SMILES string. Where two headings read alike, the source gives them in different places.

The IC50 is the concentration at which inhibition is half-maximal.

Sequence of hQC (Q16769 29-361): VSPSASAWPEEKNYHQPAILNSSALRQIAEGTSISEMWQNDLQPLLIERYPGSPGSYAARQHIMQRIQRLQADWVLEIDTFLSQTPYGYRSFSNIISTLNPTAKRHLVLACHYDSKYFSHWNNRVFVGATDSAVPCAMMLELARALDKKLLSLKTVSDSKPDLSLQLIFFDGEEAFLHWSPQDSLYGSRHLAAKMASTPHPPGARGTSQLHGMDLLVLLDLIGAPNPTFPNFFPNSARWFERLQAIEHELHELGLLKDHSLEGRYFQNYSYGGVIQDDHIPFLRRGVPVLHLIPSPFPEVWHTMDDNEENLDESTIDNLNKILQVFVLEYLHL

Take `c1ccc(Oc2ccc(-n3nnnc3C(Nc3ccc4[nH]cnc4c3)c3ccc4c(c3)OCO4)cc2)cc1` (stereo not drawn) [compound 139, {Benzo[1,3]dioxol-5-yl-[1-(4-phenoxy-phenyl)-1H-tetrazol-5-yl]-methyl}-(1H-benzoimidazol-5-yl)-amine]: the IC50 (hQC inhibition, read-out: IC50) amounted to 4 µM.

In the case of `Cn1nnnc1C(NCCCn1ccnc1)c1ccc2[nH]ccc2c1` (stereo not drawn) [compound 30, (3-Imidazol-1-yl-propyl)-[(1H-indol-5-yl)-(1-methyl-1H-tetrazol-5-yl)-methyl]-amine], for the setting “read-out: IC50”, the IC50 came to 4 µM.

In the case of `Brc1cc(Br)cc(C(Nc2ccc3[nH]cnc3c2)c2nnnn2CCc2cccs2)c1` (stereo not drawn) [compound 177, (1H-Benzoimidazol-5-yl)-{(3,5-dibromo-phenyl)-[1-(2-thiophen-2-yl-ethyl)-1H-tetrazol-5-yl]-methyl}-amine], the IC50 (hQC inhibition, read-out: IC50) amounted to 2.2 µM.

Turning to `CCCCn1nnnc1C(NCCCn1ccnc1)c1cc(C)c(C)cc1C` (stereo not drawn) [compound 24, [(1-Butyl-1H-tetrazol-5-yl)-(2,4,5-trimethyl-phenyl)-methy]-(3-imidazol-1-yl-propyl)-amine], the IC50 (read-out: IC50) amounted to 4.9 µM.

On to `CCOC(=O)C1CCCCC1n1nnnc1C(Nc1ccc2[nH]cnc2c1)c1ccc(OC)cc1` (stereo not drawn) [compound 184], for which, under “hQC inhibition, read-out: IC50”, the IC50 is 5.8 µM.

For `COCCCn1nnnc1C(NCCCn1ccnc1)c1ccc2cccc(O)c2n1` (stereo not drawn) [compound 34, 2-{(3-Imidazol-1-yl-propylamino)-[1-(3-methoxy-propyl)-1H-tetrazol-5-yl]-methyl}-quinolin-8-ol], the half-maximal inhibitory concentration (IC50) (read-out: IC50) was 2.2 µM.

With `COC(=O)Cn1nnnc1C(NCCCn1ccnc1)c1ccc2[nH]ccc2c1` (stereo not drawn) [compound 54, {5-[(3-Imidazol-1-yl-propylamino)-(1H-indol-5-yl)-methyl]-tetrazol-1-yl}-acetic methyl ester], the IC50 (read-out: IC50) turned out to be 5.8 µM.

`CC(C)(C)Cn1nnnc1C(NCCCn1ccnc1)c1ccc2cccc(O)c2n1` (stereo not drawn) [Compound 64, 2-[[1-(2,2-Dimethyl-propyl)-1H-tetrazol-5-yl]-(3-imidazol-1-yl-propylamino)-methyl]-quinolin-8-ol]: the IC50 was determined as 1.03 µM (purified compound from preparative synthesis, fluorescent assay, read-out: IC50 hQC) and 0.4 µM (read-out: IC50).

As for `COC(=O)Cn1nnnc1C(NCCCn1ccnc1)c1ccc2cccc(O)c2n1` (stereo not drawn) [compound 52], where the note is “read-out: IC50”, the IC50 was 4.9 µM.

In the case of `Cn1nnnc1C(NCCCn1ccnc1)c1ccc2cccc(O)c2n1` (stereo not drawn) [compound 29, 2-[(3-imidazol-1-yl-propylamino)-(1-methyl-1H-tetrazol-5-yl)-methyl]-quinolin-8-ol], for the setting “read-out: IC50”, the IC50 was determined as 3.1 µM.

With `CN(C)CCn1nnnc1C(NCCCn1ccnc1)c1ccc2cccc(O)c2n1` (stereo not drawn) [compound 37, 2-[[1-(2-Dimethylamino-ethyl)-1H-tetrazol-5-yl]-(3-imidazol-1-yl-propylamino)-methyl]-quinolin-8-ol], the 50% inhibitory concentration (IC50) (read-out: IC50) stood at 4.9 µM.

Take `Clc1ccc(Cn2nnnc2C(NCCCn2ccnc2)c2ccc(Cl)c(Cl)c2)cc1` (stereo not drawn) [compound 1, [[1-(4-Chloro-benzyl)-1H-tetrazol-5-yl]-(3,4-dichloro-phenyl)-methyl]-(3-imidazol-1-yl-propyl)-amine]: the IC50 (read-out: IC50) worked out at 2.2 µM.

Regarding `CCc1ccc(C(Nc2ccc3[nH]cnc3c2)c2nnnn2C2CCCCC2)cc1` (stereo not drawn) [compound 198, (1H-Benzoimidazol-5-yl)-[(1-cyclohexyl-1H-tetrazol-5-yl)-(4-ethyl-phenyl)-methyl]-amine], the IC50 (hQC inhibition, read-out: IC50) stood at 4.9 µM.

With `CCOC(=O)C1CCCCC1n1nnnc1C(Nc1ccc2[nH]cnc2c1)c1ccc(OC)c(F)c1` (stereo not drawn) [compound 132, 2-{5-[(1H-Benzoimidazol-5-ylamino)-(3-fluoro-4-methoxy-phenyl)-methyl]-tetrazol-1-yl}-cyclohexanecar-boxylic acid ethyl ester], where the note is “hQC inhibition, read-out: IC50”, the IC50 turned out to be 8.5 µM.

As for `COC(=O)Cn1nnnc1C(NCCCn1ccnc1)c1cc(C)ccc1O` (stereo not drawn) [compound 51, {5-[(2-Hydroxy-5-methyl-phenyl)-(3-imidazol-1-yl-propylamino)-methyl]-tetrazol-1-yl}-acetic methyl ester], the concentration for half-maximal inhibition (IC50) (read-out: IC50) stood at 2.2 µM.

On to `CC1(C)OCC(Cn2nnnc2C(Nc2ccc3[nH]cnc3c2)c2ccc(Cl)c([N+](=O)[O-])c2)O1` (stereo not drawn) [compound 171, (1H-Benzoimidazol-5-yl)-{(4-chloro-3-nitro-phenyl)-[1-(2,2-dimethyl-[1,3]dioxolan-4-ylmethyl)-1H-tetrazol-5-yl]-methyl}-amine], for which the IC50 (hQC inhibition, read-out: IC50) was found to be 8.5 µM.

`COc1ccc(C(Nc2ccc3[nH]cnc3c2)c2nnnn2CC2CCCO2)cc1` (stereo not drawn) [compound 88, (1H-Benzoimidazol-5-yl)-{(4-methoxy-phenyl)-[1-(tetrahydro-furan-2-ylmethyl)-1H-tetrazol-5-yl]-methyl}-amine]: the IC50 (read-out: IC50) was determined as 4.9 µM.

For `CC(Cc1ccc2c(c1)OCO2)C(Nc1ccc2[nH]cnc2c1)c1nnnn1Cc1ccccc1Cl` (stereo not drawn) [compound 113], the IC50 (read-out: IC50) came out at 3.1 µM.

Take `CC1=CCCC[C@@H]1C(NCCCn1ccnc1)c1nnnn1Cc1ccc(Cl)cc1` (stereo partly drawn) [compound 8, [[1-(4-Chloro-benzyl)-1H-tetrazol-5-yl]-((S)-2-methyl-cyclohex-2-enyl)-methyl]-(3-imidazol-1-yl-propyl)-amine]: the IC50 (read-out: IC50) was found to be 4 µM.

Turning to `OCc1ccc(C(Nc2ccc3[nH]cnc3c2)c2nnnn2-c2ccccc2OCc2ccccc2)o1` (stereo not drawn) [compound 143, (5-{(1H-Benzoimidazol-5-ylamino)-[1-(2-benzyloxy-phenyl)-1H-tetrazol-5-yl]-methyl}-furan-2-yl)-methanol], the 50% inhibitory concentration (IC50) (hQC inhibition, read-out: IC50) was found to be 4.9 µM.

`Clc1ccccc1Cn1nnnc1C(Nc1ccc2[nH]cnc2c1)c1cc2ccccc2o1` (stereo not drawn) [compound 90, {Benzofuran-2-yl-[1-(2-chloro-benzyl)-1H-tetrazol-5-yl]-methyl}-(1H-benzoimidazol-5-yl)-amine]: the IC50 (read-out: IC50) was found to be 22.2 µM.

Regarding `CCOC(=O)C1CCCCC1n1nnnc1C(Nc1ccc2[nH]cnc2c1)c1ccc(SC)cc1` (stereo not drawn) [compound 150], the IC50 (hQC inhibition, read-out: IC50) worked out at 4 µM.

Consider `COc1cc(C)c(C(Nc2ccc3[nH]cnc3c2)c2nnnn2C(C)(C)C)cc1C` (stereo not drawn) [compound 99], for which the IC50 (read-out: IC50) turned out to be 8.5 µM.

In the case of `Cc1cc(C)cc(C(Nc2ccc3[nH]cnc3c2)c2nnnn2CC(=O)N2CCc3ccccc3C2)c1` (stereo not drawn) [compound 137, 2-{5-[(1H-Benzoimidazol-5-ylamino)-(3,5-dimethyl-phenyl)-methyl]-tetrazol-1-yl}-1-(3,4-dihydro-1H-isoquinolin-2-yl)-ethanone], the IC50 (hQC inhibition, read-out: IC50) stood at 4.9 µM.

Regarding `Clc1ccc(Cn2nnnc2C(Nc2ccc3[nH]cnc3c2)c2ccc3nsnc3c2)cc1` (stereo not drawn) [compound 166], the IC50 (hQC inhibition, read-out: IC50) came to 0.4 µM.

With `CCOC(=O)C1CCCCC1n1nnnc1C(Nc1ccc2[nH]cnc2c1)c1cccc(C(=O)OC)c1` (stereo not drawn) [compound 195, 3-{(1H-Benzoimidazol-5-ylamino)-[1-(2-ethoxycarbonyl-cyclohexyl)-1H-tetrazol-5-yl]-methyl}-benzoic acid methyl ester], the IC50 (hQC inhibition, read-out: IC50) is 5.8 µM.

On to `O=[N+]([O-])c1ccc(-n2nnnc2C(Nc2ccc3[nH]cnc3c2)c2csc3ccccc23)cc1` (stereo not drawn) [compound 206], for which the 50% inhibitory concentration (IC50) (hQC inhibition, read-out: IC50) was found to be 8.5 µM.

Take `O=C(Cn1nnnc1C(Nc1ccc2[nH]cnc2c1)c1ccc(Br)cc1)N1CCc2ccccc2C1` (stereo not drawn) [compound 199, 2-{5-[(1H-Benzoimidazol-5-ylamino)-(4-bromo-phenyl)-methyl]-tetrazol-1-yl}-1-(3,4-dihydro-1H-isoquinolin-2-yl)-ethanone]: the IC50 (hQC inhibition, read-out: IC50) stood at 2.2 µM.

Consider `CCOC(=O)C1CCCCC1n1nnnc1C(Nc1ccc2[nH]cnc2c1)c1ccccc1OC` (stereo not drawn) [compound 183], for which the concentration for half-maximal inhibition (IC50) (hQC inhibition, read-out: IC50) amounted to 8.5 µM.

(Values after patent US7741354B2, “Inhibitors of glutaminyl cyclase” (Probiodrug AG, priority 2006, dated 2010).)
